Measurements: patent publication US6613793B2 (Dabur Research Foundation, priority 2001, dated 2003)
Like-named read-outs stand apart in the source and are kept apart here.

Experiments:
MCF7 breast = test: MTT cytotoxicity assay, MCF7; format: cell-based; conditions: Homo sapiens; for IC50: 24 h, MCF7 Breast, read-out: ED50 values of cytotoxicity
Method: (§1) Briefly, a three day MTT cytotoxicity assay was performed, which is based on the principle of uptake of MTT (3-(4,5-dimethylthiazol-2-yl)-2,5-diphenyl tetrazolium bromide), a tetrazolium salt, by the metabolically active cells where it is metabolized by active mitochondria into a blue colored formazan product that is read spectrophotometrically. MTT was dissolved in phosphate buffered saline with a pH of 7.4 to obtain an MTT concentration of 5 mg/ml; the resulting mixture was filtered through a 0.22 micron filter to sterilize and remove a small amount of insoluble residue. For each type of tumor cell, 20,000 to 50,000 cells were seeded in a 96-well culture plate and incubated with the combination in a CO2 incubator for 24 hours. […] After incubating for one hour, the plate was read spectrophotometrically at 540 nm and the percentage cytotoxicity calculated.

ECV304 cells = test: Inhibition of tube-like-structure (TLS) formation on Matrigel; format: cell-based; parameters: key: significant (++); marginal (+); no effect (−); conditions: 24 hours
Method: Matrigel (70 ul) was placed into each well of a 96-well culture plate at 4° C. and was allowed to polymerize by incubation at 37° C. for 30 min. ECV304 (1×10^4) cells were seeded on the Matrigel in 200 ul DMEM supplemented with 10% FBS. The compounds to be tested were added to marked wells at selected non-cytotoxic concentrations and incubated at 37° C. for 24 hours. Five different phase-contrast microscopic fields (4X) were viewed and tube-like structure formation was evaluated qualatively by observing formation of lumen (sprouting) and extent of formation of branches and loops by sprouts (intususception). The inhibition of TLS caused by the addition of the test compound was recorded as significant (++), marginal (+), or no effect (−) as compared to the control TLS formation. A summary of the results is given below in the form of a table indicating the concentrations tested.

293 Kidney = test: MTT cytotoxicity assay, 293; format: cell-based; conditions: Homo sapiens, 24 h, read-out: ED50 values of cytotoxicity
Method: as §1

Swiss albino mice = format: in vivo; conditions: oral; for safe dose: Swiss albino mice weighing 25 grams; for Mortality: observed 15 days
PA 1 Ovary = test: MTT cytotoxicity assay, PA 1; format: cell-based; conditions: Homo sapiens, 24 h; PA 1 Ovarian; read-out: ED50 values of cytotoxicity
Method: as §1

[1] = tested on: PTC (Colon) Tumor Xenografts; test: Antitumor activity on PTC (Colon) tumor xenografts in nude mice; format: in vivo, Balb/c athymic mice; conditions: 10 mg orally once a day for 15 days; at the end of treatment
Method: PTC (colon) tumor xenografts were initiated in Balb/c athymic mice by subcutaneous inoculation of a single cell suspension of PTC cells (15×10^6 cells/100 μL). […] The anti-tumor activity was monitored by measuring tumor volumes every fourth day and calculating volumes using the formula 0.4×W^2×L(W=smaller dia, L=larger dia,).

KB Oral = test: MTT cytotoxicity assay, KB; format: cell-based; conditions: Homo sapiens, 24 h, read-out: ED50 values of cytotoxicity
Method: as §1

MOLT 4 Leukemia = test: MTT cytotoxicity assay, MOLT 4; format: cell-based; conditions: Homo sapiens, 24 h, read-out: ED50 values of cytotoxicity
Method: as §1

L132 Lung = test: MTT cytotoxicity assay, L132; format: cell-based; conditions: Homo sapiens, 24 h, read-out: ED50 values of cytotoxicity
Method: as §1

U87MG Glioblastoma = test: MTT cytotoxicity assay, U87MG; format: cell-based; conditions: Homo sapiens, U-87 MG, 24 h, read-out: ED50 values of cytotoxicity
Method: as §1

Miapaca2 Pancreas = test: MTT cytotoxicity assay, Miapaca2; format: cell-based; conditions: Homo sapiens, MIA PaCa-2, 24 h, read-out: ED50 values of cytotoxicity
Method: as §1

[2] = tested on: Glyceraldehyde 3 phosphate dehydrogenase; test: Glyceraldehyde 3 phosphate dehydrogenase enzyme activity assay; format: biochemical
Method: The activity of Glyceraldehyde 3 phosphate dehydrogenase enzyme was assayed by the methods detailed earlier. (Krebs E, 1955, Methods in Enzymology, 1 407 and Velick S, 1955, Methods in Enzymology, 1, 401). To monitor the reaction, the increase in absorbance at 340 nm due to the formation of NADH from NAD was recorded at 15 seconds intervals, the values remaining almost linear for 3 minutes. The assay mixture was in a total volume of 1.5 ml containing 1.3 ml of Sodium pyrophosphate buffer (0.015M; pH 8.5), containing sodium arsenate (0.03M), 0.05 ml of NAD (7.5 mM), 0.05 ml of DTT (0.1M) and 0.05 ml of DL- glyceraldehyde 3 phosphate (7 mM). The enzyme was diluted 1:100 immediately prior to use in Sodium pyrophosphate buffer (0.015M) (pH 8.5) containing sodium arsenate (0.03M). The reaction was initiated by the addition of 0.05 ml of glyceraldehyde 3 phosphate dehydrogenase enzyme. The test mixture contained methyl glyoxal or its conjugates in concentrations ranging from 0.5 mM to 5 mM. Methyl glyoxal and its conjugates were dissolved in 2.5% ethanol and water. The control experiments were carried out in the absence of the enzyme or the substrate under identical conditions. One unit of activity of glyceraldehyde 3 phosphate dehydrogenase is defined as the amount of enzyme required to convert lumol of NAD to NADH per minute under conditions defined as above.

Hep2 Larynx = test: MTT cytotoxicity assay, Hep2; format: cell-based; conditions: Homo sapiens, HEp-2, 24 h, read-out: ED50 values of cytotoxicity
Method: as §1

PTC Colon = test: MTT cytotoxicity assay, PTC; format: cell-based; conditions: Homo sapiens, 24 h, read-out: ED50 values of cytotoxicity
Method: as §1

DU145 Prostate = test: MTT cytotoxicity assay, DU145; format: cell-based; conditions: Homo sapiens, DU-145, 24 h, read-out: ED50 values of cytotoxicity
Method: as §1

INT 407 Intestine = test: MTT cytotoxicity assay, INT 407; format: cell-based; conditions: Homo sapiens, 24 h, read-out: ED50 values of cytotoxicity
Method: as §1

[3] = dosage level 2.5X (X=400 mg/kg B.Wt.)
[4] = dosage level 3.5X (X=400 mg/kg B.Wt.)
[5] = dosage level 5X (X=400 mg/kg B.Wt.)
[6] = dosage level 7.5X (X=400 mg/kg B.Wt.)
[7] = dosage level 10X (X=400 mg/kg B.Wt.)

SMILES | TLS Inhibition (Qualitative) (ECV304 cells; 1.2 mM) | IC50 (293 Kidney) | safe dose (Swiss albino mice) | Mortality (Swiss albino mice; [3]) | Mortality (Swiss albino mice; [4]) | Mortality (Swiss albino mice; [5]) | Mortality (Swiss albino mice; [6]) | Mortality (Swiss albino mice; [7]) | IC50 (PA 1 Ovary) | IC50 (KB Oral) | Percent Inhibition Of Glyceraldehyde 3 Phosphate Dehydrogenase Activity ([2]; 0.5 mM) | Percent Inhibition Of Glyceraldehyde 3 Phosphate Dehydrogenase Activity ([2]; 1 mM) | Percent Inhibition Of Glyceraldehyde 3 Phosphate Dehydrogenase Activity ([2]; 5 mM) | other results
COC(=O)C1CCC(=O)N1C(O)C(C)=O (stereo not shown) [MGC-1, N-(1-Hydroxy-2-ketopropyl)-methylpyroglutamate] |  |  |  |  |  |  |  |  |  |  |  |  |  | cytotoxicity at 1000 µM (MCF7 breast; MCF7, 1.0 mM, read-out: Percent cytotoxicity): 0%; cytotoxicity at 5000 µM (MCF7 breast; MCF7, 5 mM, read-out: Percent cytotoxicity): 12.9 ± 2.1%
CCCCOC(=O)C1CCC(=O)N1C(O)C(C)=O (stereo not shown) [MGC-2, N-(1-Hydroxy-2-ketopropyl)-butylpyroglutamate] | + | 2000 ± 800 µM | 75 mg | 0/10 | 0/10 | 0/10 | 0/10 | 10/10 |  |  |  |  |  | 
CC(=O)C(O)N1C(=O)CCC1C(=O)OCc1ccccc1 (stereo not shown) [MGC-3, N-(1-Hydroxy-2-ketopropyl)-benzylpyroglutamate] |  |  |  |  |  |  |  |  | 1800 ± 600 µM |  |  |  |  | TLS Inhibition (Qualitative) (ECV304 cells; 2 mM): +; TLS Inhibition (Qualitative) (ECV304 cells; 2.5 mM): ++
COC(=O)C1CCC(=O)N1C(OC(C)=O)C(C)=O (stereo not shown) [MGC-4, N-(1-Acetoxy-2-ketopropyl)-methylpyroglutamate] | − |  | 100 mg | 0/10 | 0/10 | 0/10 | 0/10 | 0/10 |  |  |  |  |  | average tumor volume as compared to average tumor volume of untreated control tumors [1]: 41%
CCCCOC(=O)C1CCC(=O)N1C(OC(C)=O)C(C)=O (stereo not shown) [MGC-5, N-(1-Acetoxy-2-ketopropyl)-butylpyroglutamate] | + | 1900 ± 700 µM |  |  |  |  |  |  |  | 2000 ± 700 µM |  |  |  | 
CC(=O)OC(C(C)=O)N1C(=O)CCC1C(=O)OCc1ccccc1 (stereo not drawn) [MGC-6, N-(l-acetoxy-2-ketopropyl)-benzylpyroglutamate] | − | 2900 ± 1000 µM | 75 mg | 0/10 | 0/10 | 0/10 | 0/10 | 10/10 | 1400 ± 200 µM | 2950 ± 300 µM | 28.3 ± 2.5% | 29.4 ± 3.0% | 30.1 ± 4.0% | IC50 (MOLT 4 Leukemia): 1300 ± 300 µM; IC50 (L132 Lung): 3800 ± 1000 µM; IC50 (MCF7 breast): > 5000 µM; IC50 (U87MG Glioblastoma): 4780 ± 600 µM; IC50 (Miapaca2 Pancreas): 3900 ± 1000 µM; IC50 (Hep2 Larynx): 1200 ± 200 µM; IC50 (PTC Colon): 1600 ± 400 µM; IC50 (DU145 Prostate): 1900 ± 1000 µM; IC50 (INT 407 Intestine): > 5000 µM
CCOC(=O)C1CCC(=O)N1C(O)C(C)=O (stereo not shown) [MGC-7, N-(1-Hydroxy-2-ketopropyl)-ethylpyroglutamate] |  |  | 100 mg | 0/10 | 0/10 | 0/10 | 0/10 | 0/10 |  |  |  |  |  | 
CCOC(=O)C1CCC(=O)N1C(OC(C)=O)C(C)=O (stereo not shown) [MGC-8, N-(1-Acetoxy-2-ketopropyl)-ethylpyroglutarnate] |  |  | 100 mg | 0/10 | 0/10 | 0/10 | 0/10 | 0/10 | 1800 ± 700 µM | 1950 ± 800 µM | 32.8 ± 1.2% | 40.1 ± 2.2% | 38.2 ± 1.9% | IC50 (MOLT 4 Leukemia): 2900 ± 500 µM; IC50 (L132 Lung): > 5000 µM; IC50 (MCF7 breast): 2400 ± 1200 µM; IC50 (U87MG Glioblastoma): 1880 ± 700 µM; IC50 (Hep2 Larynx): 2100 ± 600 µM; IC50 (PTC Colon): 2750 ± 400 µM; IC50 (DU145 Prostate): 1300 ± 300 µM; IC50 (INT 407 Intestine): 550 ± 300 µM
CC(=O)C=O [Methylglyoxal, reference compound] |  |  |  |  |  |  |  |  |  |  | 15 ± 4% | 18 ± 3.4% | 20 ± 4.0% | TLS Inhibition (Qualitative) (ECV304 cells; 0.5 mM): +; TLS Inhibition (Qualitative) (ECV304 cells; 0.8 mM): +; TLS Inhibition (Qualitative) (ECV304 cells; 1 mM): ++; Glyceraldehyde 3 phosphate dehydrogenase enzyme activity inhibition (in words) ([2]; concentration ranging from 0.5 mM to 5 mM): inhibited significantly; average tumor volume as compared to average tumor volume of untreated control tumors [1]: 50%
